Data taken from BindingDB's records for doi:10.1016/j.bmc.2008.03.004 (Florida Atlantic University, 2009).

Biological target: Collagenase 3 (Homo sapiens, UniProt P45452)
Assay: Inhibition of human recombinant MMP13 expressed in Escherichia coli

IC50: > 40 µM
Structure (SMILES): COc1cc(-n2nc(C)c3c2OC(=N)C(C#N)C3c2ccccc2)c(Cl)c(Br)c1O (stereo unspecified) [6-amino-1-(3-bromo-2-chloro-4-hydroxy-5-methoxyphenyl)-3-methyl-4-phenyl-1,4-dihydropyrano[2,3-c]pyrazole-5-carbonitrile]
